7 compounds from PubChem BioAssay AID1918952 (Molecular Pharmacology Branch, DTP, NCI, 2023) can be followed below.

The assay concerns LG0703-F948-PDC complex spheroid viability. Description: Anticancer human tumor LG0703-F948-PDC patient-derived lung adenocarcinoma cell line growth inhibition. Particulars: for viability, T/C: stronger effect = lower value. The procedure, abridged:
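Complex spheroids of tumor cells with HUVEC and human MSCs, exposed to iadademstat combined with other agents. Each agent tested in half-log steps from near clinical Cmax (else 10 microM top), DMSO ≤0.25%.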

The mark [1] stands for this setting: curve of first compound, second compound 0.1 µM.
Where [2] appears, read: curve of first compound, second compound 0.316 µM.
The mark [3] stands for this setting: curve of first compound, second compound 1 µM.
Setting [4] is: curve of first compound, second compound 3.16 µM.
Where [5] appears, read: curve of first compound, second compound 10 µM.
Setting [6] is: second compound 0.1 µM, first compound 0.0316 µM.
[7] abbreviates: second compound 0.1 µM, first compound 0.1 µM.
Setting [8] is: second compound 0.1 µM, first compound 0.316 µM.
Where [9] appears, read: second compound 0.1 µM, first compound 1 µM.
The mark [10] stands for this setting: second compound 0.1 µM, first compound 3.16 µM.
Setting [11] is: second compound 0.1 µM, first compound 10 µM.
The mark [12] stands for this setting: second compound 0.316 µM, first compound 0.0316 µM.
Where [13] appears, read: second compound 0.316 µM, first compound 0.1 µM.
Setting [14] is: second compound 0.316 µM, first compound 0.316 µM.
Where [15] appears, read: second compound 0.316 µM, first compound 1 µM.
Where [16] appears, read: second compound 0.316 µM, first compound 3.16 µM.
[17] abbreviates: second compound 0.316 µM, first compound 10 µM.
[18] abbreviates: second compound 1 µM, first compound 0.0316 µM.
[19] abbreviates: second compound 1 µM, first compound 0.1 µM.
The mark [20] stands for this setting: second compound 1 µM, first compound 0.316 µM.
[21] abbreviates: second compound 1 µM, first compound 1 µM.
Where [22] appears, read: second compound 1 µM, first compound 3.16 µM.
Where [23] appears, read: second compound 1 µM, first compound 10 µM.
Where [24] appears, read: second compound 3.16 µM, first compound 0.0316 µM.
[25] abbreviates: second compound 3.16 µM, first compound 0.1 µM.
The mark [26] stands for this setting: second compound 3.16 µM, first compound 0.316 µM.
Setting [27] is: second compound 3.16 µM, first compound 1 µM.
[28] abbreviates: second compound 3.16 µM, first compound 3.16 µM.
Where [29] appears, read: second compound 3.16 µM, first compound 10 µM.
Where [30] appears, read: second compound 10 µM, first compound 0.0316 µM.
Where [31] appears, read: second compound 10 µM, first compound 0.1 µM.
The mark [32] stands for this setting: second compound 10 µM, first compound 0.316 µM.
[33] abbreviates: second compound 10 µM, first compound 1 µM.
The mark [34] stands for this setting: second compound 10 µM, first compound 3.16 µM.
[35] abbreviates: second compound 10 µM, first compound 10 µM.

Structures are written as SMILES. “And” between values parts separate entries of the source, which are not always exact repeats. Equal values may be shown once.
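Note: spheroids exposed to agents for seven days before readout.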
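Throughout, for viability, T/C: 100% = DMSO vehicle control wells as normalization base.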

Usually IC50 stands for the concentration needed to halve the response being measured. For orientation: viability, T/C means the result in the treated group divided by that in the control group, in per cent. In the case of `CC1COCCN1c1cc(C2(S(C)(=N)=O)CC2)nc(-c2ccnc3[nH]ccc23)n1` (stereo not drawn) + NC1CCC(NC2CC2c2ccccc2)CC1, the half-inhibitory concentration (IC50) is, setting by setting: under setting [1], 4.99 µM; under setting [2], 4.8 µM; under setting [3], 5.73 µM; under setting [4], 4.93 µM; under setting [5], 4.13 µM. The viability, T/C is, setting by setting: under setting [6], 107%; under setting [7], 108%; under setting [8], 103%; under setting [9], 94.4%; under setting [10], 64%; under setting [11], 28.4%. The viability, T/C under setting [12] is 111%; the viability, T/C under setting [13] was 112%; the viability, T/C under setting [14] is 94.8%; the viability, T/C under setting [15] was 96.3%; the viability, T/C under setting [16] was 59.5%; the viability, T/C under setting [17] was 30%. In addition, the viability, T/C under setting [18] is 113%; the viability, T/C under setting [19] was 104%; the viability, T/C under setting [20] is 99.6%; the viability, T/C under setting [21] is 100%; the viability, T/C under setting [22] was 77.5%; the viability, T/C under setting [23] was 23.8%. In addition, the viability, T/C is 122% under setting [24]; 118% under setting [25]; 117% under setting [26]; 96.4% under setting [27]; 66% under setting [28]; 25.5% under setting [29]. The viability, T/C is 131% under setting [30]; 129% under setting [31]; 110% under setting [32]; 88.1% under setting [33]; 63.8% under setting [34]; 14.2% under setting [35].

As to `CC(C)CC(NC(=O)C(Cc1ccccc1)NC(=O)c1cnccn1)B(O)O` (stereo not drawn), the viability, T/C is, setting by setting: (compound 0.000316 µM) 11.1% and 6.84%; (compound 0.001 µM) 1.41% and 0.31%; (compound 0.00316 µM) 0.63% and 0.15%; (compound 0.01 µM) 0.17%; (compound 0.0316 µM) 0.14% and 0.17%; (compound 0.1 µM) 0.21% and 0.29%. In addition, the half-inhibitory concentration (IC50) (curve of compound) is less than 0.000316 µM.

As for `CC(C)c1c(-c2ccccc2)nc2c(C#N)c[nH]n2c1=O`, the viability, T/C by setting is: (compound 0.0316 µM) 106% and 93%; (compound 0.1 µM) 91.8% and 84.6%; (compound 0.316 µM) 84.1% and 102%; (compound 1 µM) 100% and 86.9%; (compound 3.16 µM) 89.7% and 91%; (compound 10 µM) 75.7% and 79.8%. The half-inhibitory concentration (IC50) (curve of compound) was more than 10 µM.

As to `COc1cc(C2c3cc4c(cc3C(OC3OC5COC(C)OC5C(O)C3O)C3COC(=O)C23)OCO4)cc(OC)c1O` (stereo not drawn), the viability, T/C is 91.2% and 110% (compound 0.00949 µM); 86.7% and 112% (compound 0.03 µM); 83% and 88.5% (compound 0.0949 µM); 77% and 84.2% (compound 0.3 µM); 75% and 81.7% (compound 0.949 µM); 49.3% and 59.2% (compound 3 µM). Further, the IC50 (curve of compound) is more than 3 µM.

Take `O=C(c1cc(Cc2n[nH]c(=O)c3ccccc23)ccc1F)N1CCN(C(=O)C2CC2)CC1` + NC1CC1c1ccc(-c2cccc(O)c2)cc1: the 50% inhibitory concentration (IC50) is, setting by setting: under setting [1], more than 10 µM; under setting [2], more than 10 µM; under setting [3], more than 10 µM; under setting [4], more than 10 µM; under setting [5], more than 10 µM. The viability, T/C is 112% under setting [6]; 121% under setting [7]; 114% under setting [8]; 107% under setting [9]; 92.6% under setting [10]; 98.6% under setting [11]. For the same compound, the viability, T/C is 109% under setting [12]; 111% under setting [13]; 124% under setting [14]; 99% under setting [15]; 95.2% under setting [16]; 79.5% under setting [17]. Moreover, the viability, T/C is 102% under setting [18]; 121% under setting [19]; 134% under setting [20]; 102% under setting [21]; 92.1% under setting [22]; 86% under setting [23]. The viability, T/C reads like this: under setting [24], 114%; under setting [25], 107%; under setting [26], 122%; under setting [27], 102%; under setting [28], 106%; under setting [29], 127%. Also, the viability, T/C under setting [30] was 111%; the viability, T/C under setting [31] is 94.3%; the viability, T/C under setting [32] was 110%; the viability, T/C under setting [33] is 107%; the viability, T/C under setting [34] was 106%; the viability, T/C under setting [35] was 91.8%.

As for `NS(=O)(=O)OCC1CC(n2ccc3c(NC4CCc5ccccc54)ncnc32)CC1O` (stereo not drawn) + NC1CCC(NC2CC2c2ccccc2)CC1, the IC50 by setting is: under setting [1], 0.546 µM; under setting [2], 0.607 µM; under setting [3], 0.67 µM; under setting [4], 0.633 µM; under setting [5], 0.467 µM. Further, the viability, T/C is 106% (second compound 0.1 µM, first compound 0.00949 µM); 111% (second compound 0.1 µM, first compound 0.03 µM); 106% (second compound 0.1 µM, first compound 0.0949 µM); 70.7% (second compound 0.1 µM, first compound 0.3 µM); 31.4% (second compound 0.1 µM, first compound 0.949 µM); 19.1% (second compound 0.1 µM, first compound 3 µM). For the same compound, the viability, T/C reads like this: (second compound 0.316 µM, first compound 0.00949 µM) 111%; (second compound 0.316 µM, first compound 0.03 µM) 123%; (second compound 0.316 µM, first compound 0.0949 µM) 109%; (second compound 0.316 µM, first compound 0.3 µM) 80.5%; (second compound 0.316 µM, first compound 0.949 µM) 30.7%; (second compound 0.316 µM, first compound 3 µM) 17.1%. Also, the viability, T/C is 113% (second compound 1 µM, first compound 0.00949 µM); 144% (second compound 1 µM, first compound 0.03 µM); 105% (second compound 1 µM, first compound 0.0949 µM); 83.3% (second compound 1 µM, first compound 0.3 µM); 35.9% (second compound 1 µM, first compound 0.949 µM); 16.2% (second compound 1 µM, first compound 3 µM). Further, the viability, T/C (second compound 3.16 µM, first compound 0.00949 µM) is 124%; the viability, T/C (second compound 3.16 µM, first compound 0.03 µM) was 141%; the viability, T/C (second compound 3.16 µM, first compound 0.0949 µM) was 112%; the viability, T/C (second compound 3.16 µM, first compound 0.3 µM) is 82.5%; the viability, T/C (second compound 3.16 µM, first compound 0.949 µM) is 32.4%; the viability, T/C (second compound 3.16 µM, first compound 3 µM) was 13.6%. Moreover, the viability, T/C (second compound 10 µM, first compound 0.00949 µM) is 124%; the viability, T/C (second compound 10 µM, first compound 0.03 µM) is 124%; the viability, T/C (second compound 10 µM, first compound 0.0949 µM) is 124%; the viability, T/C (second compound 10 µM, first compound 0.3 µM) is 69.3%; the viability, T/C (second compound 10 µM, first compound 0.949 µM) is 20.4%; the viability, T/C (second compound 10 µM, first compound 3 µM) was 8.21%.

`CC1COCCN1c1cc(C2(S(C)(=N)=O)CC2)nc(-c2ccnc3[nH]ccc23)n1` (stereo not drawn): the viability, T/C is 105% and 90.8% (compound 0.0316 µM); 101% and 105% (compound 0.1 µM); 104% and 100% (compound 0.316 µM); 87.4% and 81.6% (compound 1 µM); 63% and 65.7% (compound 3.16 µM); 24.9% and 20.9% (compound 10 µM). Moreover, the concentration for half-maximal inhibition (IC50) (curve of compound) was 4.64 µM and 4.62 µM.
